Measured values: ChEMBL document CHEMBL1201862, “PubChem BioAssay data set” (2004)
Activity calls are given as the source filed them.

What was measured:
Aminopeptidase N = target: T1, Aminopeptidase N (Plasmodium falciparum FcB1/Columbia, UniProt O96935); assay: P. falciparum M1AAP inhibitors, biochemical, fluorogenic H-Leu-NHMec substrate, 1536-well (AID 1445); set-up: species or system Plasmodium falciparum 3D7, 3D7
T1 sequence (O96935 whole entry): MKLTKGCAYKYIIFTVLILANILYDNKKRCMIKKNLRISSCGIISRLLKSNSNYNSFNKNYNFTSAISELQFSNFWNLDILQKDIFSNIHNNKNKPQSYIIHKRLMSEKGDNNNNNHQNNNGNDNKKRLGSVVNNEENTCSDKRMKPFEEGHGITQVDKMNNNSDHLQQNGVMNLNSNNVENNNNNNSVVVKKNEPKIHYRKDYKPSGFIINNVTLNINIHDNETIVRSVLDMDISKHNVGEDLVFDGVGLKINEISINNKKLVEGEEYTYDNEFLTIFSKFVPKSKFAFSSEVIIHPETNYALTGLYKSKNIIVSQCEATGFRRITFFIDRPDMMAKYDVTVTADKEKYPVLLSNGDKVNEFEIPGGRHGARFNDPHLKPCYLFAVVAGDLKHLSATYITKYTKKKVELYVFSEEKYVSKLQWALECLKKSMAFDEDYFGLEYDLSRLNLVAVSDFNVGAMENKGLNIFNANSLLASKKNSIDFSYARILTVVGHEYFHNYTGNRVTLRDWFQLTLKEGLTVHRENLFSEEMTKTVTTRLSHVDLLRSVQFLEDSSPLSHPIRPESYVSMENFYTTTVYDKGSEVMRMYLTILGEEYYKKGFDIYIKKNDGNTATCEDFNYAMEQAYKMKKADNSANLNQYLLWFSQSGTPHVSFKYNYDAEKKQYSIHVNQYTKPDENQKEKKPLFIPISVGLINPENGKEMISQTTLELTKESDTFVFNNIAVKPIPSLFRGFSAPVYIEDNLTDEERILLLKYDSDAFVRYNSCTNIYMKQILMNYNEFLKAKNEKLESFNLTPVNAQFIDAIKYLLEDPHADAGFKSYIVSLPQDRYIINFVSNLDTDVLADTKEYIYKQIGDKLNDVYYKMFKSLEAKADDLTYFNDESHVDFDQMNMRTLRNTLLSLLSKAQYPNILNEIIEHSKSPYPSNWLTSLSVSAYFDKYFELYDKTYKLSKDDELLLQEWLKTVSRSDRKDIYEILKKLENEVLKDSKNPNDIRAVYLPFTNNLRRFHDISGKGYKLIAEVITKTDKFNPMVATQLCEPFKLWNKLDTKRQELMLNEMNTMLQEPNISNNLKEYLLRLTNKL

[1] = target: T2, Low molecular weight phosphotyrosine protein phosphatase (Homo sapiens, UniProt P24666); format: functional; conditions: read-out: IC50_Mean;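 also: Dose-response confirmation assay measuring inhibition of LMPTP enzyme activity by fluorescence intensity read-out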
T2 sequence (P24666 whole entry): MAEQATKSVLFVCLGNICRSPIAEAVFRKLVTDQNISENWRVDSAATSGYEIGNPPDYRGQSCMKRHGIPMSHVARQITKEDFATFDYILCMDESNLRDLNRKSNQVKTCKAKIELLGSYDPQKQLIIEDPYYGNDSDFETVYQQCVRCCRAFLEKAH

[2] = target: T3, High affinity choline transporter 1 (Homo sapiens, UniProt Q9GZV3); assay: CHT inhibitors, dose response, cell-based, 5-point CRC, membrane potential dye (AID 504840); format: functional
T3 sequence (Q9GZV3 whole entry): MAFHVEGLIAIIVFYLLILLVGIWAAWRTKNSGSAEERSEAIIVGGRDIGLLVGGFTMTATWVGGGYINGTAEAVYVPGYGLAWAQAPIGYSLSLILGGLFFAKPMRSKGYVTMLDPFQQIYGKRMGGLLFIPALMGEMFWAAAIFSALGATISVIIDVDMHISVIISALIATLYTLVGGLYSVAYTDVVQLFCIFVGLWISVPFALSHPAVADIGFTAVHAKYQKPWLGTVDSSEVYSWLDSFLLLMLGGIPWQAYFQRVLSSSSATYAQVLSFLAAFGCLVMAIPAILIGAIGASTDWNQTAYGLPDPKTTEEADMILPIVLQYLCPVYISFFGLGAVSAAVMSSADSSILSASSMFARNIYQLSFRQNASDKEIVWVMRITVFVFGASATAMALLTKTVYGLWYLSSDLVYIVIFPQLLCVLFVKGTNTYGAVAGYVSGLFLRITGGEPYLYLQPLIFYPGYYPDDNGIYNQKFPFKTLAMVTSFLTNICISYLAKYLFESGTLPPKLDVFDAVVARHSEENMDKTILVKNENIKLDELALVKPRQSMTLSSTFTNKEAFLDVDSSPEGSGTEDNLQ

[3] = Luminescence Cell-Based Dose Retest to Confirm Inhibitors of Cancer Stem Cells. [Related pubchem assays (depositor defined):AID2717, AID2721]; format: functional; conditions: Homo sapiens
[4] = MC4R antagonists, dose response, counter-screen for LGR2 antagonist project, cell-based, plate reader, cherry pick (AID 743444); format: functional;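 also: transfected HEK 293 cells stimulated with alpha-MSH peptide; potency of inhibitors of the alpha-MSH evoked signal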
[5] = LGR2 antagonists, dose response, cell-based, HEK293, CRE-luciferase reporter, cherry pick, set 2 (AID 743343); format: functional;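 also: transfected cells were stimulated with diluted bursicon conditioned medium after compound addition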
Genome polyprotein = Genome polyprotein (dengue virus type 2, UniProt P29990); assay: Dengue-2 NS5 methyltransferase inhibitors, primary screen, biochemical, confirmation dose response (AID 588689); format: functional
Chain of Genome polyprotein (P29990 2492-3391 limits assumed): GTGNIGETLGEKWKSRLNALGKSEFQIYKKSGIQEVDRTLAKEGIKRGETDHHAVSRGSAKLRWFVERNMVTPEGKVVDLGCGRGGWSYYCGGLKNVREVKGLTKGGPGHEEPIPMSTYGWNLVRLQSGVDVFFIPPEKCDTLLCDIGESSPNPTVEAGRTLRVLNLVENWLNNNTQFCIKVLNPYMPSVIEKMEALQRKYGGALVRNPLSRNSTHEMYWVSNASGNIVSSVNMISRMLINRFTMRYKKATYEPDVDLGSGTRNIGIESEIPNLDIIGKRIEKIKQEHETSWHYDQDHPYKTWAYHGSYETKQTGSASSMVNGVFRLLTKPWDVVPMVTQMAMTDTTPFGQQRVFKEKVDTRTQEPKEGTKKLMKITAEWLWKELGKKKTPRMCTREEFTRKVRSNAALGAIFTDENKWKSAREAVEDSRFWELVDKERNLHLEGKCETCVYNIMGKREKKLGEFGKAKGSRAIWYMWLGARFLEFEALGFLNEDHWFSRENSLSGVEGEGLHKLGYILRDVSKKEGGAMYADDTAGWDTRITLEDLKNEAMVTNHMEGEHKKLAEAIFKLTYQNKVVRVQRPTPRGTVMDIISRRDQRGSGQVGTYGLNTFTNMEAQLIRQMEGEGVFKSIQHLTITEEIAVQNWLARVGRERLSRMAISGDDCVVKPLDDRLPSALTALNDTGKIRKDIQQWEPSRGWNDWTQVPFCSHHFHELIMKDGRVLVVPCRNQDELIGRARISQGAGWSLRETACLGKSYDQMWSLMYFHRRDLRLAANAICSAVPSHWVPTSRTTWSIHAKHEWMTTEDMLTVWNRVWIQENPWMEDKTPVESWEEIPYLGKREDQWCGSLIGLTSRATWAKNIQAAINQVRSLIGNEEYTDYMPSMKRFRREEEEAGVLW

[6] = target: T4, Replicative DNA helicase DnaB (Mycobacterium tuberculosis, UniProt P9WMR3); assay: DnaB intein splicing inhibitors, dose response, biochemical, cell-free fluorescence (AID 449749); format: functional
T4 sequence (P9WMR3 whole entry): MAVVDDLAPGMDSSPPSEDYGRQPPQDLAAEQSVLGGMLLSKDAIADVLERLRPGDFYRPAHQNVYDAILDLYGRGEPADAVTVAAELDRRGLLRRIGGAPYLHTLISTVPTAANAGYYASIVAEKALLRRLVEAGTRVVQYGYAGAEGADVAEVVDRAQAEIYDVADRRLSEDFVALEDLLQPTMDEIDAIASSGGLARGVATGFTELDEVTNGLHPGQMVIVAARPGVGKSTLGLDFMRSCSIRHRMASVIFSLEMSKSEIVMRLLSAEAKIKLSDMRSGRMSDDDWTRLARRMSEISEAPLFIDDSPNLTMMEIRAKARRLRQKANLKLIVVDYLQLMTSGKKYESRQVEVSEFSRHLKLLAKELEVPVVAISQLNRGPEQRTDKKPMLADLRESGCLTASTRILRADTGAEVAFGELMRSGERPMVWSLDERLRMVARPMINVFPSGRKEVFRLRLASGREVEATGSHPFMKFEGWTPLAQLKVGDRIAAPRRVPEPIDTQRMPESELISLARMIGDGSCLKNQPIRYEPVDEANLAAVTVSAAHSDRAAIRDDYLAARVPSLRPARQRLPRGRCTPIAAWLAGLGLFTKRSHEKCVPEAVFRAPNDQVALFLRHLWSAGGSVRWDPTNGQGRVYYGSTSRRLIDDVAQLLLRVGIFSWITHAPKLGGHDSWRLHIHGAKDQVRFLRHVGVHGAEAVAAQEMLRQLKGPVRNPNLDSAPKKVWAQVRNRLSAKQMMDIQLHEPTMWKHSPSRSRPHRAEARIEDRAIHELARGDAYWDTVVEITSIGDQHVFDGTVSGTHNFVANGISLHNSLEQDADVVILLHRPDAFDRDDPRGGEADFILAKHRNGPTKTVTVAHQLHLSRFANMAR

Protein RecA = target: T5, Protein RecA (Mycobacterium tuberculosis, UniProt P9WHJ3); assay: Fluorescence Cell-Free Homogeneous Dose Retest to Identify Inhibitors of RecA-Intein Splicing Activity. [Related pubchem assays (depositor defined):AID2097, AID2223, AID489010, AID492950]; format: functional
T5 sequence (P9WHJ3 whole entry): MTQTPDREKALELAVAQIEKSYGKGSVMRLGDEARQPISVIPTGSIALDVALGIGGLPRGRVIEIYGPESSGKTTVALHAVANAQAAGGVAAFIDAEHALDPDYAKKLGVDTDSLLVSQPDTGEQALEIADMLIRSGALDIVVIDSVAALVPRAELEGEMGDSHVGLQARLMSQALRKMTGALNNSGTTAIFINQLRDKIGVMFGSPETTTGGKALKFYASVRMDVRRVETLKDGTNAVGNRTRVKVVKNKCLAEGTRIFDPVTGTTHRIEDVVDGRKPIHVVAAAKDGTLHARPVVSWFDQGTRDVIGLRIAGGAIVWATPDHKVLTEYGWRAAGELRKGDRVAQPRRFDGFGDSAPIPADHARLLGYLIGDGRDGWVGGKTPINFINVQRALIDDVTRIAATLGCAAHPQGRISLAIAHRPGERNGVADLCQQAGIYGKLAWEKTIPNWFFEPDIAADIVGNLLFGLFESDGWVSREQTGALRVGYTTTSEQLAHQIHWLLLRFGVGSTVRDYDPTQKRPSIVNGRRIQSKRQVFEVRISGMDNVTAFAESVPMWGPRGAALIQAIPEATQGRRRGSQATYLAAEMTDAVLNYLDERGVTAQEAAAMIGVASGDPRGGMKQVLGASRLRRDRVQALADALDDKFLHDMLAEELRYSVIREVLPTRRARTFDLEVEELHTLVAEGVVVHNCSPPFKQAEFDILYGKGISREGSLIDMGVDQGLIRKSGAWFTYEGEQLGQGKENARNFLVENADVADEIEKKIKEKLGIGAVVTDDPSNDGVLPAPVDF

[7] = cytotoxicity in OVCAR8 ovarian cancer cells, dose response, PAX8 project, cell-based, plate reader, dry powder samples (AID 743197); format: functional; conditions: OVCAR-8
Paired box protein Pax-8 = Paired box protein Pax-8 (Homo sapiens, UniProt Q06710); assay: inhibitors of PAX8-driven TPO luciferase reporter, dose response, RMG-I cells, cherry-pick (AID 687027); format: functional, cell-based;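 also: luciferase reporter driven by Pax8 target thyroperoxidase promoter measured by SteadyGlo luminescence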
Chain of Paired box protein Pax-8 (Q06710 whole entry): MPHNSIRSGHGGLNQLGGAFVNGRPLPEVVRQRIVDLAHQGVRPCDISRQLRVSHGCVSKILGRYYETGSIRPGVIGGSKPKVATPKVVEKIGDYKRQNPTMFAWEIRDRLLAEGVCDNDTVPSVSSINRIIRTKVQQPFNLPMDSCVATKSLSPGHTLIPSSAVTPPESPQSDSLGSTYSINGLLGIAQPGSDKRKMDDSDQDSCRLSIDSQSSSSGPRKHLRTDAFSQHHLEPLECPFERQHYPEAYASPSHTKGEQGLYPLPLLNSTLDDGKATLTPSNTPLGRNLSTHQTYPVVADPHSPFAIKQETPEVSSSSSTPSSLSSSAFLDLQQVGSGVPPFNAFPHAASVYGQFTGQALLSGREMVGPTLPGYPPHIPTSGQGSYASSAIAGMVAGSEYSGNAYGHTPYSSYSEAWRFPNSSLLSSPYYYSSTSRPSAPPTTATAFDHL

cells [8] = format: functional, cell-based
cells [9] = format: functional, cell-based; remark: listed apart in the source
[10] = inhibitors of SNCA 5'UTR-driven reporter translation, confirmation, H4 neuroglioma cells, luminescence (AID 1988); format: functional, cell-based
[11] = Luminescence Cell-Based Dose Response HTS to Identify Inhibitors of 5'UTR Stem-Loop Driven Prion Protein mRNA Translation in H4 Neuroglioblastoma Cells. [Related pubchem assays: 1827 (Project Summary), 1813 (Primary HTS)]; format: functional
[12] = inhibitors of firefly luciferase expression or activity, dose response, H4 neuroglioma cells, luminescence (AID 1990); format: functional, cell-based

COc1ccc(CNC(=O)C2CCN(S(=O)(=O)c3cc(OC)ccc3OC)CC2)cc1
IC50 (Aminopeptidase N): 99 µM (active)

O=c1cc(CSc2nc(NCc3ccccc3)c3ccccc3n2)nc2ccc(Cl)cn12
IC50 [1]: 26 µM (inactive)

C(=C\c1nc(N2CCCC2)c2ccccc2n1)/c1ccccc1
IC50 [1]: 8.49 µM (active)

COc1ccc(-c2cc(C(=O)Nc3cc(Br)ccc3O)no2)cc1
IC50 [1]: 2.09 µM (active)

Cc1ccc(C)c(C(=O)COc2ncnc3ccccc23)c1
IC50 [2]: 15.1 µM (active)

CCc1ccc2oc(C(=O)NCC(c3ccc(OC)cc3)N3CCCCC3)c(C)c2c1 (stereo not drawn)
IC50 [2]: 2.29 µM (active) | AC50 [3]: 3.23 µM (active)

COCCn1c(C)cc(C(=O)CSc2nnnn2C2CCCC2)c1C
AC50 [4]: 2.78 µM (active) | AC50 [5]: 3.39 µM (active)

O=C(O)c1cccc(S(=O)(=O)Nc2ccc([N+](=O)[O-])cc2O)c1
IC50 (Aminopeptidase N): 66.2 µM (active)

O=S(=O)(c1ccc2c(c1)OCCO2)N1CCC(n2nnc3cc(F)ccc32)CC1
IC50 (Aminopeptidase N): 8.18 µM (active)

CCc1ccc(S(=O)(=O)NCc2cn3cccc(C)c3n2)s1
IC50 [2]: 13.8 µM (active)

Nc1ccccc1Sc1ccc(C(=O)c2ccccc2C(=O)O)cc1[N+](=O)[O-]
IC50 (Aminopeptidase N): 98.9 µM (active)

COc1ccc(N2C(=O)C(Cl)=C(N3CCOCC3)C2=O)cc1
IC50 (Genome polyprotein): 33.1 µM (active) | AC50 [6]: 10.8 µM (active) | EC50 (Protein RecA): 3 µM (active)

O=C1NC(=O)C(=Cc2c[nH]nc2-c2ccccc2)C(=O)N1
IC50 (Genome polyprotein): 53 µM (active)

COc1ccc(C2(O)CCN(C(=O)NC3CCCCC3)CC2)cc1
IC50 [2]: 14.5 µM (active)

Cc1noc(NS(=O)(=O)c2ccc(NC(=O)c3ccccc3NS(=O)(=O)c3ccc(F)cc3)cc2)c1C
IC50 (Genome polyprotein): 40.9 µM (active)

O=C1c2ccccc2C(O)(c2ccccc2)N1c1ccc([N+](=O)[O-])cc1Cl (stereo not drawn)
IC50 (Genome polyprotein): 60.8 µM (active)

C[C@H]1CCCCO[C@H](CN(C)Cc2ccc(Cl)c(Cl)c2)[C@@H](C)CN([C@@H](C)CO)C(=O)c2cc(NC(=O)Nc3ccccc3)ccc2O1
AC50 [7]: > 70 µM (inactive) | AC50 (Paired box protein Pax-8): 13.1 µM (active)

C[C@@H]1CCCCO[C@@H](CN(C)Cc2ccc(C(F)(F)F)cc2)[C@@H](C)CN([C@@H](C)CO)C(=O)c2cc(NS(=O)(=O)c3ccccc3)ccc2O1
AC50 [7]: > 70 µM (inactive) | AC50 (Paired box protein Pax-8): 7.21 µM (active)

C[C@@H]1CN([C@H](C)CO)C(=O)c2cc(NS(=O)(=O)c3ccccc3)ccc2O[C@@H](C)CCCCO[C@H]1CN(C)Cc1ccc(Cl)c(Cl)c1
AC50 [7]: 45 µM (active) | AC50 (Paired box protein Pax-8): 9.93 µM (active)

O=C(CNC(=O)c1ccccc1Br)N/N=C/c1cc(Br)ccc1O
EC50 (cells [8]): 34.7 µM (active) | IC50 (Aminopeptidase N): 26.6 µM (active) | EC50 (cells [9]): > 350 µM (not active)

Nc1c(C(=O)N/N=C/c2ccc(OCc3ccccc3)cc2)cnn1-c1ccccc1
EC50 [10]: 11.9 µM (active) | EC50 [11]: 21.9 µM (active) | IC50 [1]: 25.9 µM (inactive) | EC50 [12]: > 120 µM (not active)
